“Also recorded” adds a separate entry of the source. Read-outs that look alike come from different tables or passages of the source.
Key:
[1] = type: biochemical
Procedure: Test 5 is a […] test wherein 0.1 ml aliquots of 10^−4 M methanolic solutions of the tested products are added to test tubes containing a solution formed by 0.2 ml of 2 mM deoxyribose, 0.4 ml of phosphate buffer pH 7.4 100 mM and 0.1 ml of 1 mM Fe^II(NH4)2(SO4)2 in 2 mM HCl. The test tubes are then maintained at 37° C. for one hour. Then in each test tube 0.5 ml of a 2.8% solution in trichloroacetic acid water and 0.5 ml of an aqueous 0.1 M solution of thiobarbituric acid are added, in the order. A reference blank is formed by adding to a test tube containing only the above described aqueous solution of reactants 0.1 ml of methanol. […] A pink coloration is developed the intensity of which is proportional to the quantity of deoxyribose undergone to radical oxidative degradation. The solutions are cooled at room temperature and their absorbances are read at 532 nm against the blank. The inhibition induced by the precursor of B or B1 or C=-Tc-Y—H in the confront of radical production by Fe^II is determined by means of the following formula: (1−As/Ac)×100 wherein As and Ac are respectively the absorbance values of the solution containing the tested compound+the iron salt and that of the solution containing only the iron salt, the compound meets test 5 when the inhibition percentage of radical production as above defined from the precursor of B is higher than or equal to 50%. […]

[2] = system: human endothelial cells of the umbilical vein; assay: Test 2 (CIP): apoptosis (DNA fragmentation) induced by cumene hydroperoxide in endothelial cells; type: cell-based; settings: drug 10^-4 M; CIP 5 mM
Procedure: Test 2 (CIP): Protection parameter of endothelial cell against the oxidative stress induced by cumene hydroperoxide (CIP).
Human endothelial cells of the umbilical vein are prepared according to an usual standard procedure. Fresh umbilical veins are filled with a 0.1% by weight collagenase solution and incubated at 37° C. for 5 minutes.
The cells are collected from the perfusate by centrifugation and harvested in culture flasks T-75, pretreated with human fibronectin. The cells are then harvested in the same medium, further added with 10 ng/ml of bovine hypothalamic growth factor. When the cells of the primary cell culture (i.e. that directly obtained from ex-vivo) form a single layer of confluent cells (about 8,000,000 cells/flask), the culture is stopped and the layers washed and trypsinized. The cellular suspensions are transferred into the wells of a cell culture plate having 24 wells, half of which is then additioned with the same culture medium containing the drug at a 10^−4M concentration, and harvested in a thermostat at 37° C. at a constant moisture. Only the cells coming from said first sub-cultures are used for the experiments with cumene hydroperoxide (CIP).
Before starting the test, the cellular culture medium is removed and the cellular layers are carefully washed with a physiologic solution at a temperature of 37° C. The wells of the culture plate are then incubated for one hour with CIP at a 5 mM concentration in the culture medium. […] 5 replicates for each sample are carried out.
Human endothelial cells of the umbilical vein are prepared according to a standard method. Fresh umbilical veins are filled with a collagenase solution 0.1% by weight and incubated at 37° C. for 5 minutes.
The cells are collected from the perfusate by centrifugation at 800 rpm and harvested in culture flasks T-75, pretreated with human fibronectin. Cells are then harvested in the same medium, added with bovine hypothalamic growth factor (100 ng/ml). When the cells of the primary cell culture (the cells directly removed from ex-vivo umbilical vein) form a single layer of confluent cells (about 8,000,000 cells/flask), harvesting is stopped and the layers are washed and trypsinized. The cellular suspensions are transferred into wells of a culture plate having 24 wells, half of said wells being added with the same culture medium containing the drug at a 10^−4M concentration, and harvested in a thermostat at 37° C. at a constant moisture (90%), CO2=5%. When the drug is not soluble in the culture medium, it is formerly dissolved in a small amount of dimethylsulphoxide. The maximum amount of dimethylsulphoxide which can be added to the culture medium is 0.5%. Only the cells coming from these first subcultures are used for the tests with cumene hydroperoxide (CIP).
Before starting the test, the cellular culture medium is removed and the cellular layers are carefully washed with a standard physiologic solution buffered with phosphate 0.1 M pH 7.0, at the temperature of 37° C. The content of each well is then incubated for one hour with a CIP suspension in the culture medium at a 5 mM concentration. Evaluation of the cellular damage (apoptosis) is carried out by determining the percent variation of the DNA fragmentation in the cultures containing the drug+CIP with respect to the controls treated with CIP only. […] The fluorescence of each sample was determined on 5 replicates. Statistic evaluation has been made with t Student test (p<0.01).

[3] = system: gastrointestinal mucosa; settings: male, Wistar, rat, in vivo, 6 h
Procedure: Gastric lesions induced by administration of the compounds of the invention in the confront of the corresponding drug precursor.
The animals have been sacrificed 6 hours after the administration. The gastrointestinal mucosa has been removed and inspected. The incidence of the gastrointestinal damage has been evaluated as described in experiment F1.

[4] = system: human endothelial cells of the umbilical vein; assay: Experiment F6: apoptosis (DNA fragmentation) induced in endothelial cells by hydrogen peroxide; type: cell-based; settings: Endothelial cell, products 100 mmoles/l, hydrogen peroxide 200 mmoles/l, 18 hours, read-out: Apoptosis % (respect to the controls treated only with CIP)
Excerpt: It has been Evaluated the Activity of Some of the Compounds Object of the Present Invention and of the Corresponding Precursor Drugs in Inhibiting DNA Degradation (Apoptosis) in Endothelial Cells Exposed to the Action of Hydrogen Peroxide (HP)
Hydrogen peroxide is a mild oxidant and is considered as an essential mediating agent in pathologies associated with oxidative stress (B. Halliwell, J. Gutteridge “Free Radicals in Biology and Medicine”, page 416, 1993). Therefore the pharmacological activity of compounds to be used under oxidative stress conditions is evaluated through their capability of neutralizing the cytolesive effects of the hydrogen peroxide (B. Halliwell, J. Gutteridge “Free Radicals in Biology and Medicine”, page 416, 1993).
The method described by Herman et Al. (Herman C., Zeiner M. A., Dimmeler S., Arterioscler. Thromb. Vasc. Biol. 17 (12), 3588-82, 1997).
Human endothelial cells of the umbilical vein are prepared according to a standard method. Fresh umbilical veins, just removed, are filled with a solution of collagenase at 0.1% and incubated at 37° C. for 5 minutes.
Subsequently the veins are perfused with medium M 199 (GIBCO, Grand Island, N.Y.) pH 7.4 containing 20% of human serum. The cells are collected from the perfusate by centrifugation at 800 rpm and harvested in culture flasks T-75, pretreated with human fibronectin. […]

[5] = system: erythrocytes; assay: Test 4A: inhibition of erythrocyte haemolysis induced by cumene hydroperoxide; settings: 2 mM, preincubated 30 minutes; cumene hydroperoxide 270 μM; at Tmax
[6] = system: liver; assay: Example F10: liver safety (AST, ALT, glutathione, bilirubin); type: in vivo, rat; settings: rats, 6 hours; for AST %: i.p. (NO-paracetamol 1.4 g/Kg, paracetamol 1.16 g/Kg); for AST % / ALT % / Bilirubin % / Glutathione %: % of vehicle group; for ALT % / Bilirubin % / hepatic damage (in words) / Glutathione %: i.p.; for Glutathione %: liver glutathione
Procedure: After 6 hours the animals were killed by cervical dislocation, trunk blood collected and plasma analysed for aspartate aminotransferase (AST) and alanine aminotransferase (ALT) activity, liver glutathione and bilirubin concentration.

[7] = system: carrageenan rat paw edema; assay: Carrageenan rat paw edema; type: in vivo; settings: for Antiinflammatory activity % paw edema inhibition: rat, intraperitoneally prior to carrageenan, 3 h
Procedure: (§1) Antiinflammatory and analgesic activity have been measured according to carrageenan rat paw edema and acetic acid mouse writhing methods.
Experiments were conducted as described by Al-Swayeh et al., Brit. J. Pharmacol. 129, 343-350 2000). Hind paw volume was determined by plethysmography before and after 3 h after interplantar carrageenan injection (100 microliter, 2% w/v). The compounds were given intraperitoneally […] prior to carrageenan injection. At the end of the experiment animals were killed by cervical dislocation and exsanguination. The Results shown in Table IX are expressed as % of paw edema inhibition, i.e. the paw volume of the controls (vehicle) subtracted of the paw volume of the treated and the obtained difference divided by the paw volume of the controls.

[8] = system: acetic acid mouse writhing; assay: Acetic acid mouse writhing; type: in vivo
Procedure: as §1
Experiments were conducted as described by Moore et al. (Br. J. Pharmacol. 102, 198-202 1990). The compounds were given orally 15 minutes prior to intraperitoneal acetic acid (2% w/v in saline pH 2.7, 10 ml/Kg). Mice were transferred immediately to individual observation cages and the number of abdominal constrictions monitored over the following 30 minutes. At the end of the observation period the animals were killed by cervical dislocation and exsanguination. Results are expressed as the number of abdominal constrictions (writhings) per 30 minutes test period, expressed as percentage to those observed in the control group, and are reported in Table IX.

SMILES | inhibition of apoptosis induced by CIP (in words, p<0.01) [2] | AST % [6] [%] | ALT % [6] [%] | Bilirubin % [6] [%] | Glutathione % [6] [%] | Antiinflammatory activity % paw edema inhibition [7] [%] | also measured
OCCCCO [1,4-Butandiol] | – | – | – | – | – | – | % Radical inhibition from Fe^II [1]: 0%
NCCCC(O)(P(=O)(O)O)P(=O)(O)O [Alendronate, sodic alendronate] | do not significantly inhibit apoptosis | – | – | – | – | – | Gastropathy % incidence [3]: 100%; activity at 100000 µM [4]: 18%
OCCOCCO [Diethylenglycol] | – | – | – | – | – | – | % Radical inhibition from Fe^II ([1]; 10^-4 M methanolic solution, 37° C. one hour, absorbance 532 nm): 0%; % Haemolysis inhibition [5]: 33.4%
CC(=O)Nc1ccc(OC(=O)CCCO[N+](=O)[O-])cc1 [Example 1, 4-nitroxybutyric acid 4′-acetylamino phenyl ester] | – | 160 | 57 | 136 | 49 | 69 | hepatic damage (in words) ([6]; listed as NO-paracetamol): much lower increases of AST and ALT; also recorded: the bilirubin concentration is lower than that in the control groups; also recorded: able to spare the liver; antiinflammatory activity compared with paracetamol (in words) ([7]; carrageenan paw edema): much more active in both tests than paracetamol; analgesic activity compared with paracetamol (in words) ([8]; acetic acid writhing): much more active in both tests than paracetamol
CC(=O)Nc1ccc(O)cc1 [Paracetamol, paracetamol] | do not significantly inhibit apoptosis; also recorded: not significantly different with respect to that of the controls | 330 | 171 | 200 | 52 | 34 | hepatic damage (in words) [6]: causes hepatic damage; Analgesic activity % writhing inhibition ([8]; mice, orally 15 minutes prior to intraperitoneal acetic acid, 30 minutes): 40%
